{
  "source": "paper PMC7217877",
  "about": "“N-AS-triggered SPMs are direct regulators of microglia in a model of Alzheimer’s disease” (Nature Communications, 2020)",
  "assay_type_in_all_cases": "in vivo, mouse",
  "key": {"[1]": {"system": "APP/PS1 mice", "assay": "RNA seq of microglia from treated mice (Fig 4f-i)", "details": "N-AS-treated vs vehicle APP/PS1", "procedure": "Transgenic mouse lines over-expressing the hAPP695swe (APP) and presenilin-1M146V (PS1) mutations were originated from GlaxoSmithKline (Harlow, UK)[32] and maintained as described previously. We purchased 5×FAD mice from Jackson Labs (Stock number. 34840-JAX). Because APP/PS1 and 5xFAD mice show sex differences in disease progression, we used only male mice. To examine possible therapeutic effect of N-AS and aspirin in APP/PS1 mice, the N-AS (30 mg kg^−1, Sigma-Aldrich, 01912) was injected daily s.c. for 8 weeks to 7-months-old APP/PS1 mice until the age of 9 months, and aspirin (2 mg kg^−1, Sigma-Aldrich, A5376)[33] was administrated orally to 7-months-old APP/PS1 mice for 8 weeks. […]\nTotal RNA was isolated in microglia derived from WT, APP/PS1, and APP/PS1 mice treated with N-AS using Trizol reagent (Invitrogen). RNA quality was assessed by Agilent 2100 bioanalyzer using the RNA 6000 Nano Chip (Agilent Technologies, Amstelveen, The Netherlands), and RNA quantification was performed using ND-2000 Spectrophotometer (Thermo Inc., DE, USA). […] Quantification was performed using the library quantification kit using a StepOne Real-Time PCR System (Life Technologies, Inc., USA). […] Then, total RNA-Seq reads were mapped using TopHat software tool in order to obtain bam file (alignment file). […]"}, "[2]": {"system": "APP/PS1 mice", "assay": "open field test (Supplementary Fig 7f-i)", "set-up": "open field test, sFig 7f (sheet untitled): unit not given here", "procedure": "(§1) Transgenic mouse lines over-expressing the hAPP695swe (APP) and presenilin-1M146V (PS1) mutations were originated from GlaxoSmithKline (Harlow, UK)[32] and maintained as described previously. We purchased 5×FAD mice from Jackson Labs (Stock number. 34840-JAX). Because APP/PS1 and 5xFAD mice show sex differences in disease progression, we used only male mice. To examine possible therapeutic effect of N-AS and aspirin in APP/PS1 mice, the N-AS (30 mg kg^−1, Sigma-Aldrich, 01912) was injected daily s.c. for 8 weeks to 7-months-old APP/PS1 mice until the age of 9 months, and aspirin (2 mg kg^−1, Sigma-Aldrich, A5376)[33] was administrated orally to 7-months-old APP/PS1 mice for 8 weeks. […] Block randomization method was used to allocate the animals to experimental groups. To eliminate the bias, we were blinded in experimental progress such as data collection and data analysis. Mice were housed at temperature of 22 °C and a 12 h day/12 h night cycle with free access to tap water and food pellets. All protocols were approved by the Kyungpook National University Institutional Animal Care and Use Committee. […] Freezing was analyzed for 5 min. […] Overall activity in the box was measured, and the amount of time and distance traveled in the center arena was noted. […] The total number of transitions, latency to first enter the light chamber, distance traveled, and time spent in each chamber were recorded."}, "[3]": {"system": "APP/PS1 mice", "assay": "light-dark test (Supplementary Fig 7j-n)", "details": "N-AS vs APP/PS1", "procedure": "as §1"}},
  "note": "“And” between values parts separate entries of the source, which are not always exact repeats. Equal values may be shown once.",
  "data": [
    {"smiles": "CCCCCCCCCCCCC/C=C/[C@@H](O)[C@H](CO)NC(C)=O", "note": "[N-AS, N-((2S,3R,E)-1,3-Dihydroxyoctadec-4-en-2-yl)acetamide]", "values": [
      {"measurement": "microglial gene expression pattern (RNA seq)", "setting": "[1]", "result": "upregulation of several reactive microglial genes"},
      {"measurement": "open field test, sFig 7f (sheet untitled)", "setting": "[2]; APP/PS1 + N-AS, sums to 600 with sFig 7g", "result": "520.5 and 509.5 and 517.5 and 503.5 and 522.5 and 508 and 406.5 and 460.5"},
      {"measurement": "locomotion and spontaneous activity, open field test", "setting": "[2]; N-AS vs APP/PS1", "result": "improved locomotion and spontaneous activity"},
      {"measurement": "light–dark test", "setting": "[3]", "result": "did not differ between the groups"}
    ]}
  ]
}
